From patent publication US10463651B2, “3-(1H-pyrrolo[3,2-C]pyridin-2-YL)-1H-indazoles and therapeutic uses thereof” (Samumed, LLC, priority 2015, dated 2019)

Tests used:
Format in all cases: cell-based
[1] = tested on: SW480 colon cancer cells; assay: Cell viability assay (CellTiter-Blue); conditions: Homo sapiens; for EC50: 96 h, SW480 cell viability, four days, CellTiter-Blue; for inhibition at 10 µM: SW480, 96 h, read-out: percent inhibition at 10 μM
Procedure, shortened: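 Fluorescence from resazurin reduced to resorufin by metabolically active cells was the read-out, taken after ~3 h with CellTiter-Blue.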

[2] = tested on: IL-6 (THP-1 cells); assay: IL-6 inhibition in LPS-stimulated THP-1 cells (HTRF); conditions: Homo sapiens; for EC50: IL6 by HTRF, THP-1 cells, 500 ng/mL LPS, 22 hours; for inhibition at 10 µM: THP-1, read-out: percent inhibition at 10 M
Procedure, shortened: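 THP-1 cells, pre-cultured 24 h in 1% FBS medium, treated with compound 2 h at 37 °C, then stimulated with 500 ng/mL LPS for 22 h. Secreted IL-6 measured by HTRF as the 665/620 nm ratio. Values normalized to DMSO; EC50 from four-parameter fit, duplicates.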

[3] = tested on: primary human mesenchymal stem cells (hMSCs); assay: Induction of chondrogenesis in hMSCs (Rhodamine B / Nile Red nodule imaging); conditions: for EC50: concentration required to induce 50% levels of chondrogenesis vs TGF-β3 positive control, read-out: Conc (nM) of 50% TGF-β3 activity; for Emax: maximum activity relative to TGF-β3 (10 ng/mL) positive control, read-out: Max. Activity as % TGF-β3 activity
Procedure, shortened: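 Primary hMSCs at passage 3-6 were treated with compound; nodule area per well was normalized to the mean of 3 DMSO wells, averaged over 2-3 replicates, and the concentration giving 50% chondrogenesis relative to TGF-β3 control, plus maximum activity and its dose, was derived.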

[4] = tested on: primary human fibroblasts derived from IPF patients (LL29 cells) treated with TGF-β1; assay: Inhibition of the fibrotic process (αSMA staining) in TGF-β1-treated fibroblasts; conditions: Fibroblast, 96 h; for EC50: % αSMA-positive LL29 cells, TGF-β1 20 ng/mL, 4 days; for inhibition at 10 µM: read-out: percent inhibition at 10 μM
Procedure, shortened: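 LL29 fibroblasts from IPF patients, 1,500 cells/well in F12 with 1% FBS, stimulated with TGF-β1; TGF-β1 plus DMSO wells as controls. Incubation 4 days, then SYTOX green 1 μM final for 30 min at room temperature. Fibrotic response read as αSMA staining.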

[5] = tested on: Wnt activity (Sp5-Luc reporter, SW480 colon carcinoma cells); assay: Screening assay for Wnt activity (Sp5-Luc reporter gene assay in SW480 cells); conditions: Homo sapiens; for EC50: Sp5-Luc reporter, SW480 cells, incubated overnight; for inhibition at 10 µM: SW480, read-out: percent inhibition at 10 μM
Procedure, shortened: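 SW480 colon carcinoma cells stably carrying Sp5 promoter (eight TCF/LEF sites)-driven firefly luciferase, plated at 4,000 cells/well in 1% FBS medium and incubated overnight at 37° C. Luminescence normalised to DMSO-only cells; EC50 from four-parameter variable-slope nonlinear regression.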

SMILES | EC50 [1] [nM] | EC50 [2] [nM] | EC50 [3] [nM] | EC50 [5] [nM] | Emax [3] [%] | EC50 [4] [nM] | inhibition at 10 µM [2] [%] | inhibition at 10 µM [1] [%] | inhibition at 10 µM [4] [%] | inhibition at 10 µM [5] [%]
CCCCC(=O)Nc1cncc(-c2ccc3[nH]nc(-c4cc5cnccc5[nH]4)c3c2)c1 [Compound 271, N-(5-(3-(1H-Pyrrolo[3,2-c]pyridin-2-yl)-1H-indazol-5-yl)pyridin-3-yl)pentanamide] | 491 | 149 | 900 | 275 | 67 | 192 |  |  |  | 
O=C(Nc1cncc(-c2ccc3[nH]nc(-c4cc5cnccc5[nH]4)c3c2)c1)C1CCC1 [Compound 273, N-(5-(3-(1H-Pyrrolo[3,2-c]pyridin-2-yl)-1H-indazol-5-yl)pyridin-3-yl)cyclobutanecarboxamide] | 441 | 118 | 10 | 75 | 213 | 95 |  |  |  | 
O=C(Nc1cncc(-c2ccc3[nH]nc(-c4cc5cnccc5[nH]4)c3c2)c1)C1CCCCC1 [Compound 275, N-(5-(3-(1H-Pyrrolo[3,2-c]pyridin-2-yl)-1H-indazol-5-yl)pyridin-3-yl)cyclohexanecarboxamide] | 255 | 77 | 30 | 285 | 155 | 110 |  |  |  | 
c1cc2[nH]c(-c3n[nH]c4ccc(-c5cncnc5)cc34)cc2cn1 [Compound 279, 5-(Pyrimidin-5-yl)-3-(1H-pyrrolo[3,2-c]pyridin-2-yl)-1H-indazole] | 2300 | 1840 |  | 1480 | 22 | 686 |  |  |  | 
Cc1ccncc1-c1ccc2[nH]nc(-c3cc4c(-c5ccoc5)nccc4[nH]3)c2c1 [Compound 313, 3-(4-(Furan-3-yl)-1H-pyrrolo[3,2-c]pyridin-2-yl)-5-(4-methylpyridin-3-yl)-1H-indazole] | 1580 | 649 | 2700 | 614 | 153 | 286 |  |  |  | 
c1cc2[nH]c(-c3n[nH]c4ccc(-c5cncc(CN6CCCCC6)c5)cc34)cc2c(-c2ccoc2)n1 [Compound 323, 3-(4-(Furan-3-yl)-1H-pyrrolo[3,2-c]pyridin-2-yl)-5-(5-(piperidin-1-ylmethyl)pyridin-3-yl)-1H-indazole] | 3420 | > 10000 | 10 | 890 | 177 | 1150 | 16.6 |  |  | 
c1ncc(-c2ccc3[nH]nc(-c4cc5c(-c6ccoc6)nccc5[nH]4)c3c2)cn1 [Compound 335, 3-(4-(Furan-3-yl)-1H-pyrrolo[3,2-c]pyridin-2-yl)-5-(pyrimidin-5-yl)-1H-indazole] | 438 | 508 |  | 1910 | 40 | 349 |  |  |  | 
Cc1ccncc1-c1ccc2[nH]nc(-c3cc4c(-c5cc(F)cc(CNS(C)(=O)=O)c5)nccc4[nH]3)c2c1 [Compound 481, N-(3-Fluoro-5-(2-(5-(4-methylpyridin-3-yl)-1H-indazol-3-yl)-1H-pyrrolo[3,2-c]pyridin-4-yl)benzyl)methanesulfonamide] | 500 | 103 | 300 | 304 | 267 | 528 |  |  |  | 

More lines, main results first:

EC50 [1] [nM] | EC50 [2] [nM] | EC50 [3] [nM] | EC50 [5] [nM] | SMILES | Emax [3] [%] | EC50 [4] [nM] | inhibition at 10 µM [2] [%] | inhibition at 10 µM [1] [%] | inhibition at 10 µM [4] [%] | inhibition at 10 µM [5] [%]
358 | 40 | 300 | 151 | CC(C)Nc1cncc(-c2ccc3[nH]nc(-c4cc5c(-c6cc(F)cc(CNS(C)(=O)=O)c6)nccc5[nH]4)c3c2)c1 [Compound 488, N-(3-Fluoro-5-(2-(5-(5-(isopropylamino)pyridin-3-yl)-1H-indazol-3-yl)-1H-pyrrolo[3,2-c]pyridin-4-yl)benzyl)methanesulfonamide] | 191 | 125 |  |  |  | 
> 10000 | > 10000 | 900 | > 10000 | CS(=O)(=O)NCc1cc(F)cc(-c2nccc3[nH]c(-c4n[nH]c5ccc(-c6ccncc6)cc45)cc23)c1 [Compound 494, N-(3-Fluoro-5-(2-(5-(pyridin-4-yl)-1H-indazol-3-yl)-1H-pyrrolo[3,2-c]pyridin-4-yl)benzyl)methanesulfonamide] | 66 | > 10000 | 44.6 | 9.5 | 0 | 19
230 | 63 | 300 | 172 | CS(=O)(=O)NCc1cc(F)cc(-c2nccc3[nH]c(-c4n[nH]c5ccc(-c6cncc(CN7CCC(F)(F)C7)c6)cc45)cc23)c1 [Compound 502, N-(3-(2-(5-(5-((3,3-Difluoropyrrolidin-1-yl)methyl)pyridin-3-yl)-1H-indazol-3-yl)-1H-pyrrolo[3,2-c]pyridin-4-yl)-5-fluorobenzyl)methanesulfonamide] | 175 | 160 |  |  |  | 
> 10000 | 35 |  | 3080 | CS(=O)(=O)NCc1cc(F)cc(-c2nccc3[nH]c(-c4n[nH]c5ccc(-c6cncnc6)cc45)cc23)c1 [Compound 503, N-(3-Fluoro-5-(2-(5-(pyrimidin-5-yl)-1H-indazol-3-yl)-1H-pyrrolo[3,2-c]pyridin-4-yl)benzyl)methanesulfonamide] | 40 | > 10000 |  | 32.7 | 15.5 | 
4020 | > 10000 |  | 1240 | Cc1ncc(-c2ccc3[nH]nc(-c4cc5c(-c6ccncc6)nccc5[nH]4)c3c2)n1C [Compound 573, 5-(1,2-Dimethyl-1H-imidazol-5-yl)-3-(4-(pyridin-4-yl)-1H-pyrrolo[3,2-c]pyridin-2-yl)-1H-indazole] | 36 | 9980 | 38.8 |  |  | 
> 10000 | > 10000 |  | > 10000 | CN1CCN(c2nccc3[nH]c(-c4n[nH]c5ccc(-c6cncc(NC(=O)CC7CCNCC7)c6)cc45)cc23)CC1 [Compound 641] | 43 | 9900 | 28.7 | 20.9 |  | 0
552 | 1160 | 30 | 1860 | c1cc2[nH]c(-c3n[nH]c4ccc(-c5cncc(OCCN6CCCC6)c5)cc34)cc2cn1 [Compound 658, 5-(5-(2-(Pyrrolidin-1-yl)ethoxy)pyridin-3-yl)-3-(1H-pyrrolo[3,2-c]pyridin-2-yl)-1H-indazole] | 198 | 338 |  |  |  | 
500 | 9120 |  | 808 | COc1cncc(-c2ccc3[nH]nc(-c4cc5c(-c6ccsc6)nccc5[nH]4)c3c2)c1 [Compound 676, 5-(5-Methoxypyridin-3-yl)-3-(4-(thiophen-3-yl)-1H-pyrrolo[3,2-c]pyridin-2-yl)-1H-indazole] | 39 | 2100 |  |  |  | 
227 | 4530 |  | 309 | COc1cncc(-c2ccc3[nH]nc(-c4cc5c(-c6ccoc6)nccc5[nH]4)c3c2)c1 [Compound 692, 3-(4-(Furan-3-yl)-1H-pyrrolo[3,2-c]pyridin-2-yl)-5-(5-methoxypyridin-3-yl)-1H-indazole] | 20 | 741 |  |  |  | 
